# Test results: ChEMBL document CHEMBL1132021, “Synthesis of an imidazo[1,2-e]purine-acridine heterodimer for targeting abasic sites in DNA” (Bioorg Med Chem Lett, 1999)
# Assay: Ionization state of the molecule at physiological pH was evaluated by potentiometry.
# Type: ADME
row,SMILES,pKa
1,Nc1ncnc2c1nc(N)n2[C@@H]1O[C@H](CO)[C@@H](O)[C@H]1O,4
2,COc1ccc2nc3cc(Cl)ccc3c(N)c2c1,8.99
